pIC50: −log10 of the molar value.
Legend:
[1] = target: T1, Adrenergic receptor beta (Rattus norvegicus, UniProt P18090+P10608+P26255); test: In vitro binding affinity at beta adrenergic receptor binding site receptors in rat brain membrane using [3H]dihydroalprenolol as radioligand; format: cell membranes
[2] = target: D(1A) dopamine receptor (Rattus norvegicus, UniProt P18901); test: In vitro binding affinity at Dopamine receptor D1 using [3H]SCH-23390 as radioligand
[3] = target: D(2) dopamine receptor (Rattus norvegicus, UniProt P61169); test: In vitro binding affinity at Dopamine receptor D2 in rat striata using [3H]domperidone as radioligand
D(2) dopamine receptor, sequence (P61169 whole entry): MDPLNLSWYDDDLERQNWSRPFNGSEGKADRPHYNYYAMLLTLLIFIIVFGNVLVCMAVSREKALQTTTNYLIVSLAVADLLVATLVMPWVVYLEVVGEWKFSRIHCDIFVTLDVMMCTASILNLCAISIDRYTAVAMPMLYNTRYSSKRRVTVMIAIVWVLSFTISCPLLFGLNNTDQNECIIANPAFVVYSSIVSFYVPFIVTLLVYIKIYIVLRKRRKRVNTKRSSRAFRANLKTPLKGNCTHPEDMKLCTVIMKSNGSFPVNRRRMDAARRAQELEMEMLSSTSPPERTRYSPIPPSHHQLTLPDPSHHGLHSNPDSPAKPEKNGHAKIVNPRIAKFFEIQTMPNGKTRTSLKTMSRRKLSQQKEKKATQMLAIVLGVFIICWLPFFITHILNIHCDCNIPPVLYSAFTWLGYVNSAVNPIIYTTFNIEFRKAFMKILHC

[4] = target: T2, Glutamate receptor ionotropic, AMPA (Rattus norvegicus, UniProt P19490+P19491+P19492+P19493); test: In vitro binding affinity at quisqualate binding site of quisqualate/AMPA glutamate receptors in rat brain membrane using [3H]- ]AMPA as radioligand; format: cell membranes
[5] = target: Glutamate receptor ionotropic, kainate; test: In vitro binding affinity at Ionotropic glutamate receptor ionotropic kainate in rat brain membrane using [3H]kainate as radioligand; format: cell membranes
[6] = target: Muscarinic acetylcholine receptor; test: In vitro binding affinity at muscarinic binding site receptors in rat brain membrane using [3H]QNB as radioligand; format: cell membranes
[7] = target: T1, Adrenergic receptor beta; test: In vitro binding affinity at Beta adrenergic receptor in rat brain membrane using [3H]dihydroalprenolol as radioligand; format: cell membranes
[8] = target: Glutamate receptor ionotropic, kainate; test: In vitro binding affinity at Ionotropic glutamate receptor kainate in rat brain membrane using [3H]kainate as radioligand; format: cell membranes
[9] = target: Muscarinic acetylcholine receptor; test: In vitro binding affinity at Muscarinic acetylcholine receptor in rat brain membrane using [3H]QNB as radioligand; format: cell membranes
[10] = target: T2, Glutamate receptor ionotropic, AMPA; test: In vitro binding affinity at quisqualate binding site of quisqualate/AMPA glutamate receptors in rat brain membrane using [3H]AMPA as radioligand; format: cell membranes

D(1A) dopamine receptor, sequence (P18901 whole entry): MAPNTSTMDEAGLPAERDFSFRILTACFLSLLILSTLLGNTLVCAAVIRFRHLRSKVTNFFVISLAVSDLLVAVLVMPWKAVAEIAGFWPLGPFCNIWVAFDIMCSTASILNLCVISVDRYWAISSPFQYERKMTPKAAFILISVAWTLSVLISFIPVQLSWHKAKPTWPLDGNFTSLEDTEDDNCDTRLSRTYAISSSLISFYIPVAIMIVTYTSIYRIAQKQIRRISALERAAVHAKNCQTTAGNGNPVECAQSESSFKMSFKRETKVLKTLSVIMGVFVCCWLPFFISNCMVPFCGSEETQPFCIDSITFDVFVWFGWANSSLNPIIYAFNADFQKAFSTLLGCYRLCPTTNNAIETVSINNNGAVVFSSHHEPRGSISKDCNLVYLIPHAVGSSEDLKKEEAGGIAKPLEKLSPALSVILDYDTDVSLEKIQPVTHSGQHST

Question: Which results are given for `CC(Cc1ccc(I)cc1)NCCCc1ccccc1` (centres undefined)?
Answer: IC50 [1]: 5.57 µM; pIC50 [2]: < 5.00; pIC50 [3]: 5.42; pIC50 [4]: < 5.00; pIC50 [5]: < 5.00; IC50 [6]: > 10 µM

Question: What does the source list for `c1ccc(CCCNC2CCc3ccccc3CC2)cc1`?
Answer: IC50 [7]: > 10 µM; pIC50 [2]: < 5.00; pIC50 [3]: 5.24; pIC50 [4]: < 5.00; pIC50 [8]: < 5.00; IC50 [9]: 9.5 µM

Question: Which results are given for `CC(Cc1ccc(Cl)c(Cl)c1)NCCCc1ccccc1` (centres undefined)?
Answer: IC50 [7]: 1.24 µM; pIC50 [2]: < 5.00; pIC50 [3]: 5.75; pIC50 [4]: < 5.00; pIC50 [8]: < 5.00; IC50 [9]: 7.4 µM

Question: For `COc1ccc(CC(C)NCCCc2ccccc2)cc1` (centres undefined), which IC50 [1] is on record?
Answer: 4.94 µM

Question: And the pIC50 [2]?
Answer: < 5.00

Question: And the pIC50 [3]?
Answer: 5.03

Question: And the pIC50 [10]?
Answer: < 5.00

Question: And the pIC50 [5]?
Answer: < 5.00

Question: What about the IC50 [6] of the same molecule?
Answer: > 10 µM
